Test results published in ChEMBL document CHEMBL4359816, “Discovery and Optimization of Quinolinone Derivatives as Potent, Selective, and Orally Bioavailable Mutant Isocitrate Dehydrogenase 1 (mIDH1) Inhibitors” (J Med Chem, 2019).
Converted amounts (≈) assume the structure as drawn.

Columns and labels:
[1] = Metabolic stability in human liver microsomes assessed as compound remaining after 30 mins; format: ADME, Microsome; conditions: read-out: Stability
[2] = Metabolic stability in mouse liver microsomes assessed as compound remaining after 30 mins; format: ADME, Microsome; conditions: read-out: Stability
[3] = Kinetic solubility of the compound; format: physicochemical; conditions: read-out: Kinetic_solubility
[4] = biological target: T1, Isocitrate dehydrogenase [NADP] cytoplasmic (Homo sapiens, UniProt O75874, R132C); assay: Inhibition of human Myc-DDK-tagged IDH1 R132C mutant assessed as reduction in NADPH consumption pre-incubated for 15 mins followed by alpha-ketoglutarate substrate and NADPH addition after 45 mins by diaphorase and resazurin dye based assay
[5] = Metabolic stability in rat liver microsomes assessed as compound remaining after 30 mins; format: ADME, Microsome; conditions: read-out: Stability
[6] = biological target: T1, Isocitrate dehydrogenase [NADP] cytoplasmic; assay: Inhibition of IDH1 R132C mutant in human HCT116 cells assessed as reduction in 2-HG levels after 24 hrs by RapidFire high-throughput mass spectrometry assay; format: cell-based
[7] = Octanol/aqueous buffer partition coefficient, log D of the compound at pH 7.4; format: physicochemical

T1 sequence (O75874 2-414 R132C limits assumed): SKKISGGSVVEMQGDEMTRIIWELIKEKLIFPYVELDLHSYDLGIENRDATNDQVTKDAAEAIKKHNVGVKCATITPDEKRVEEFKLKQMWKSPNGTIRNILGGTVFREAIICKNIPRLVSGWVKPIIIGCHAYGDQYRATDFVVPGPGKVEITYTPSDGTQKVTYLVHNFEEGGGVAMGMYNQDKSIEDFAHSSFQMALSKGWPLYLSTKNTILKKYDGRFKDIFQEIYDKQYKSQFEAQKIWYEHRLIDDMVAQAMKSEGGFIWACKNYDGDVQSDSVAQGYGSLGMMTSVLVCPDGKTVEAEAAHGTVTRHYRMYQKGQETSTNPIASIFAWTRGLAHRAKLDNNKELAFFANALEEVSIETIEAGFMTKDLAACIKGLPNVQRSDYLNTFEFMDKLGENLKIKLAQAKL

SMILES	remaining at 0.5 h [1]	remaining at 0.5 h [2]	solubility kinetic [3]	IC50 [4]	remaining at 0.5 h [5]	IC50 [6]	logD [7]
N#Cc1ccc(NCc2cc3cc(Cl)ccc3[nH]c2=O)cc1F	100%	49%	< 0.1 µM				
Cc1cc(NCc2cc3cc(Cl)ccc3[nH]c2=O)ccc1C#N	75%	49%	< 0.1 µM				
COc1cc(NCc2cc3cc(Cl)c(OC[C@@H]4CCCN4C)cc3[nH]c2=O)ccc1C#N	6.3%	48.8%	0.72 µM (≈ 0.326 µg/mL)	5870 nM			
COc1cc(C#N)ccc1NCc1cc2cc(Cl)ccc2[nH]c1=O	79%	2.1%	< 0.1 µM				
COc1nc(N[C@@H](C)c2cc3cc(Cl)c(OCc4ccccn4)cc3[nH]c2=O)ncc1C#N	97%		1.5 µM (≈ 0.694 µg/mL)	43 nM	77%	22 nM	
COc1cc(NCc2cc3cc(Cl)c(OCc4ccccn4)cc3[nH]c2=O)ccc1C#N	30%	73.4%	< 0.1 µM	225 nM			
COc1cc(NCc2cc3cc(Cl)c(OCCN4CCOCC4)cc3[nH]c2=O)ccc1C#N	1.1%	13.1%	0.385 µM (≈ 0.181 µg/mL)	932 nM			
CCOc1cc(NCc2cc3cc(Cl)ccc3[nH]c2=O)ccc1C#N	78%	29%	< 0.1 µM				
Cc1cc(NCc2cc3cc(Cl)ccc3[nH]c2=O)ncc1C#N	99%	75%	0.8 µM (≈ 0.26 µg/mL)				
COc1nc(N[C@@H](C)c2cc3cc(Cl)c(OCC4CC4)cc3[nH]c2=O)ncc1C#N	100%		< 0.1 µM	53 nM	100%	54 nM	
COc1cc(NCc2cc3cc(F)ccc3[nH]c2=O)ccc1C#N	81%	46%	3.32 µM (≈ 1.07 µg/mL)				
COc1cc(NCc2cc3ccc(C)cc3[nH]c2=O)ccc1-n1cnnn1	9.6%	17.8%	< 0.01 µM				
COc1cc(NCc2cc3cc(Cl)c(OCC4CCCCN4C)cc3[nH]c2=O)ccc1C#N (configuration not stated)	0%	10.7%	1.35 µM (≈ 0.63 µg/mL)	1280 nM			
O=c1[nH]c2ccc(Cl)cc2cc1CNc1ccc(-n2ccnc2)cc1	98%	93%	1.57 µM (≈ 0.551 µg/mL)				
COc1cc(NCc2cc3cc(Cl)ccc3n(C)c2=O)ccc1-n1cnnn1	63.7%	22%	< 0.01 µM				
COc1cc(NCc2cc3ccccc3[nH]c2=O)ccc1-n1cnnn1	88%	69.4%	0.93 µM (≈ 0.324 µg/mL)				
COc1nc(N[C@@H](C)c2cc3cc(Cl)c(OC(C)C)cc3[nH]c2=O)ncc1C#N	100%		0.43 µM (≈ 0.178 µg/mL)	26 nM	90%	104 nM	
COc1cc(N[C@@H](C)c2cc3cc(Cl)ccc3[nH]c2=O)ncc1C#N	100%	100%	15.6 µM (≈ 5.53 µg/mL)				3.38
N#Cc1ccc(NCc2cc3cc(Cl)ccc3[nH]c2=O)cc1	65%	53%	0.21 µM (≈ 0.065 µg/mL)				

SMILES	remaining at 0.5 h [1]	remaining at 0.5 h [2]	solubility kinetic [3]	IC50 [4]	remaining at 0.5 h [5]	IC50 [6]	logD [7]
Cc1nc(N[C@@H](C)c2cc3cc(Cl)ccc3[nH]c2=O)ccc1C#N	98%	94%	5.7 µM (≈ 1.93 µg/mL)	183 nM		269 nM	3.74
COc1cc(NCc2cc3cc(Cl)cc(OC)c3[nH]c2=O)ccc1C#N	53%	3.4%	< 0.1 µM	88600 nM			
N#Cc1ccc(NCc2cc3cc(Cl)ccc3[nH]c2=O)nc1	91%	75%	0.42 µM (≈ 0.131 µg/mL)				
COc1cc(NCc2cc3cc(Cl)c(OCc4cc(C)n(C)n4)cc3[nH]c2=O)ccc1C#N	32.7%	52.7%	< 0.01 µM	317 nM			
COc1cc(NCc2cc3cc(Cl)c(OCCN4CCCC4=O)cc3[nH]c2=O)ccc1C#N	2.5%	14.3%	0.53 µM (≈ 0.247 µg/mL)	2670 nM			
COc1cc(NCc2cc3cc(C)ccc3[nH]c2=O)ccc1C#N	1.2%	0.49%	1.33 µM (≈ 0.425 µg/mL)				
COc1cc(NCc2cc3cc(Br)ccc3[nH]c2=O)ccc1C#N	89%	39%	0.18 µM (≈ 0.0692 µg/mL)				
Cc1ccnc(NCc2cc3cc(Cl)ccc3[nH]c2=O)c1	76%	0.6%	0.88 µM (≈ 0.264 µg/mL)				
Cc1nc(NC2(c3cc4cc(Cl)ccc4[nH]c3=O)CC2)ccc1C#N	91%	77%	< 0.1 µM				
COc1nc(N[C@@H](C)c2cc3cc(Cl)c(F)cc3[nH]c2=O)ncc1C#N	89%		1.2 µM (≈ 0.449 µg/mL)	184 nM	100%	259 nM	
COc1cc(NCc2cc3cc(Cl)ccc3[nH]c2=O)ccc1-n1cnnn1	93.9%	89.9%	< 0.01 µM				
COc1cc(NCc2cc3ccccc3[nH]c2=O)ccc1C#N	35%	4.6%	6.13 µM (≈ 1.87 µg/mL)				
COc1cc(NCc2cc3cc(Cl)c(OCCN(C)C)cc3[nH]c2=O)ccc1C#N			1 µM (≈ 0.427 µg/mL)	6250 nM			
COc1cc(NCc2cc3cc(Cl)cc(OCCN4CCOCC4)c3[nH]c2=O)ccc1C#N	0%	2.4%	< 0.1 µM	3710 nM			
COc1cc(NCc2cc3cc(Cl)ccc3[nH]c2=O)cc(OC)c1C#N	80%	59%	< 0.1 µM				
COc1cc(NCc2cc3cc(Cl)cc(OCc4ccccn4)c3[nH]c2=O)ccc1C#N				3480 nM			
N#Cc1ccc(NCc2cc3cc(Cl)ccc3[nH]c2=O)cc1C(F)(F)F	100%	100%	< 0.1 µM				
COc1cc(NCc2cc3cc(C(C)(C)C)ccc3[nH]c2=O)ccc1C#N	6%	3.9%	< 0.1 µM				
COc1cc(NCc2cc3cc(Cl)c(OC4CCN(C)CC4)cc3[nH]c2=O)ccc1C#N	4.3%	78.8%	0.41 µM (≈ 0.186 µg/mL)	5100 nM			

Results, then the molecule that gave them:

remaining at 0.5 h [1]	remaining at 0.5 h [2]	solubility kinetic [3]	IC50 [4]	remaining at 0.5 h [5]	IC50 [6]	logD [7]	SMILES
94%	100%	< 0.1 µM					N#Cc1ccc(NCc2cc3cc(Cl)ccc3[nH]c2=O)nc1C(F)(F)F
81%	67%	< 0.1 µM					Cc1nc(NC(C)(C)c2cc3cc(Cl)ccc3[nH]c2=O)ccc1C#N
100%	96%	12.2 µM (≈ 4.13 µg/mL)	606 nM				Cc1nc(NC(C)c2cc3cc(Cl)ccc3[nH]c2=O)ccc1C#N (racemic)
75%	85%	20.9 µM (≈ 6.81 µg/mL)					N#Cc1ccc(NCc2cc3cc(Cl)ccc3[nH]c2=O)cc1O
17.6%	27.9%	0.04 µM (≈ 0.0151 µg/mL)					COc1cc(NCc2cc3cc(C)c(C)cc3[nH]c2=O)ccc1-n1cnnn1
75%	71%	4.1 µM (≈ 1.45 µg/mL)	111 nM		213 nM	3.67	COc1cc(N[C@@H](C)c2cc3cc(Cl)ccc3[nH]c2=O)ccc1C#N
100%	85%	1.2 µM (≈ 0.44 µg/mL)					Cc1nnnn1-c1ccc(NCc2cc3cc(Cl)ccc3[nH]c2=O)cc1
93%		0.4 µM (≈ 0.158 µg/mL)	305 nM	68%	195 nM		COc1nc(N[C@@H](C)c2cc3cc(Cl)c(C4CC4)cc3[nH]c2=O)ncc1C#N
82%	57%						O=c1[nH]c2ccc(Cl)cc2cc1CNc1ccc(-c2csnn2)cc1
30.8%	42.3%	< 0.01 µM					COc1cc(NCc2cc3cc(C)ccc3[nH]c2=O)ccc1-n1cnnn1
72%	72%	< 0.1 µM					N#Cc1ccc(NCc2cc3cc(Cl)ccc3[nH]c2=O)cc1OC(F)(F)F
100%	89%	8 µM (≈ 2.71 µg/mL)					Cc1nc(N[C@H](C)c2cc3cc(Cl)ccc3[nH]c2=O)ccc1C#N
100%	81%	32.5 µM (≈ 12.8 µg/mL)					COc1cc(NCc2cc3cc(Cl)ccc3[nH]c2=O)ccc1S(C)(=O)=O
21.6%	10.5%	0.67 µM (≈ 0.225 µg/mL)					COc1ccc2[nH]c(=O)c(CNc3ccc(C#N)c(OC)c3)cc2c1
76%	89%	< 0.1 µM					COc1cc(NCc2cc3cc(C(F)(F)F)ccc3[nH]c2=O)ccc1C#N
1%	94.9%	< 0.1 µM	667 nM				COc1cc2[nH]c(=O)c(CNc3ccc(C#N)c(OC)c3)cc2cc1Cl
100%	60%	4.8 µM (≈ 1.7 µg/mL)	1020 nM		338 nM	2.5	COc1nc(C#N)ccc1N[C@@H](C)c1cc2cc(Cl)ccc2[nH]c1=O
82%		0.08 µM (≈ 0.0284 µg/mL)	190 nM		92 nM	3.47	COc1nc(N[C@@H](C)c2cc3cc(Cl)ccc3[nH]c2=O)ccc1C#N
